# In patent publication US11813277B2, “Methods and agents for modulating inflammation” (The Regents of the University of California, priority 2018, dated 2023):
# How the values were obtained:
# HepG2 cells = assay: Palmitate-driven respiration in intact HepG2 cells (Seahorse); assay type: cell-based
# Experimental: (§1) All respirometry studies were conducted in either a Seahorse XF96 or XFe96 Analyzer. All experiments were conducted at 37° C., and at pH 7.4 (intact cells) or 7.2 (permeabilized cells and isolated mitochondria). Calculation of respiratory parameters was made according to standard protocols (Divakaruni, A. S., Paradyse, A., Ferrick, D. A., Murphy, A. N., and Jastroch, M. (2014a) Analysis and interpretation of microplate-based oxygen consumption and pH data. Meth. Enzym 547, 509-54), and all rates were corrected for non-mitochondrial respiration/background signal by subtracting the oxygen consumption rate insensitive to rotenone plus antimycin A.
# Palmitate oxidation in intact cells (FIG. 1A, FIG. 1B) was assessed by measuring palmitate-driven respiration that was sensitive to low concentrations of etomoxir (Rogers, G. W., Nadanaciva, S., Swiss, R., Divakaruni, A. S., and Will, Y. (2014) Assessment of fatty acid beta oxidation in cells and isolated mitochondria. Curr. Protoc. Toxicol. 60, 25.3, 1-19). […] Respiration was measured under basal conditions as well as after injection of 2 μM oligomycin, two sequential additions of 1 μM FCCP, followed by 0.2 μM rotenone with 1 μM antimycin A. Etomoxir was added to the assay medium 30 min. prior to measurements of basal respiratory rates.
# BMDMs = assay: Substrate-specific respirometry in permeabilized cells; assay type: cell-based, mouse; details: 3 μM etomoxir
# HepG2 hepatoma cells = assay: Maximal respiration in intact HepG2 hepatoma cells (positive control); assay type: cell-based; details: 3 μM etomoxir
# Experimental: as §1
# Detailed description of FIG. 5. (FIG. 5A) Maximal FCCP-stimulated respiration in response to 3 μM etomoxir in six cell types (experimental conditions in Materials and Methods). […] (n≥3 independent biological replicates). (FIG. 5B) (Left) Maximal respiration in HepG2 cells offered 8 mM glucose, 2 mM glutamine, and 2 mM pyruvate in the experimental medium with BPTES and UK5099 (both at 3 μM)±3 μM etomoxir. (n=4 independent biological replicates). (Right) Maximal respiration in 3T3-L1 adipocytes offered 1 mM glucose and 0.5 mM carnitine in the experimental medium with increasing concentrations of etomoxir. (n=3 independent biological replicates). […]
# CPT-1 = target: T1, CPT-1 (Homo sapiens, UniProt P50416); assay: Palmitoyl CoA-driven respiration in permeabilized HepG2 cells; assay type: cell-based; design: endogenous in cells; host or cells: HepG2 (A5)
# T1 sequence (P50416 1-773): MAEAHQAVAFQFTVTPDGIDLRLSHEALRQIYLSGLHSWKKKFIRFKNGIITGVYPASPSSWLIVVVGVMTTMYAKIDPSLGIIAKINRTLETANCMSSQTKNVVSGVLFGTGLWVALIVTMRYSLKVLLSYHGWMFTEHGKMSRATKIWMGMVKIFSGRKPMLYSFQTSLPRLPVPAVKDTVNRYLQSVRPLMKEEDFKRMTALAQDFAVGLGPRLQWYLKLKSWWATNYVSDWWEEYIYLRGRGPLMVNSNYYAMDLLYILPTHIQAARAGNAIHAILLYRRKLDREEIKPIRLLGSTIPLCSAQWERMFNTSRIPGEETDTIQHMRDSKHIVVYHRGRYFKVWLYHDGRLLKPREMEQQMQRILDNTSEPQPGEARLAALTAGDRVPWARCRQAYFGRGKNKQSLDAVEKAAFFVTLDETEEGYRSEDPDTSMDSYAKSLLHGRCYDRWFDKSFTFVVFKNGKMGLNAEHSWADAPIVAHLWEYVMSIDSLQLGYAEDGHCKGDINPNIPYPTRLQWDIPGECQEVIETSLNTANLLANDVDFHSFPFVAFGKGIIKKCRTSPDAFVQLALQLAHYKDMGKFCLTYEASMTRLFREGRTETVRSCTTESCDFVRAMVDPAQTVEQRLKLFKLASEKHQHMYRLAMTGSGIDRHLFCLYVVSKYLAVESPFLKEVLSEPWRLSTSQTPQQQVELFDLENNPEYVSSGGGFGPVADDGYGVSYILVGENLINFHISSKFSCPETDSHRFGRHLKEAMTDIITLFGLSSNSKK
structure (smiles),measurement,setting,value
CCOC(=O)[C@@]1(CCCCCCOc2ccc(Cl)cc2)CO1 [etomoxir],FCCP-stimulated respiration,HepG2 cells; 1 μM etomoxir,largely sensitive
same,half-maximal inhibitory concentration (EC50) for uncoupler-stimulated respiration,"HepG2 cells; intact HepG2, albumin-buffered palmitate",sub-micromolar
same,palmitoyl CoA oxidation,BMDMs,significant effect
same,respiration driven by substrates which do not require CPT-1,"BMDMs; glutamate/malate, pyruvate/malate, palmitoylcarnitine/malate, succinate/rotenone",no effect
same,respiration,HepG2 hepatoma cells,sufficient to inhibit respiration
same,"EC50, FCCP-stimulated palmitoyl CoA-driven respiration",CPT-1,nanomolar
same,concentration of saturable effect,CPT-1,less than 3 μM
